Experimental data as given in patent US20150306096A1, “8'-HYDROXY-DIHYDROERGOTAMINE COMPOUNDS AND COMPOSITIONS” (MAP Pharmaceuticals, Inc., priority 2012, published 2015).
Where two headings read alike, the source gives them in different places.

Experiments:
Test in all cases: Aequorin functional assay (agonist/antagonist)
Format in all cases: cell-based
[1] = target: T1, human Serotonin 5-HT5A receptor (Homo sapiens, UniProt P47898)
T1 construct: expressed in transfected cells; host or cells: CHO-K1 or HEK-293, coexpressing mitochondrial apoaequorin
Experimental: (§1) Functional profiling of agonist and antagonist activities of 8′-OH DHE on human Adrenergic α1D, Dopamine D2L, and Serotonin 5-HT1B, 5-HT1D, 5-HT1F, 5-HT3, 5-HT4e and 5-HT5A receptors (compared against the parent (DHE) molecule) was carried out as follows.
(§2) The SPA 35S-GTPγS tests were conducted with Euroscreen membrane preparations […]. The HTRF assays were conducted with recombinant cell lines. The receptor accession numbers, cellular background and reference compounds are as reported below in Table 10.
(§3) (1) DHE and 8′-OH DHE were tested for agonist and antagonist activity at the human Adrenergic α1D, Serotonin 5-HT3 and Serotonin 5-HT5A receptors using aequorin assay (in triplicate) at the following nanomolar concentrations:
(§4) (5) DHE was tested for agonist and antagonist activity at the human Adrenergic α1D, Serotonin 5-HT3 and Serotonin 5-HT5A receptors using aequorin assay (in triplicate), and at the human Dopamine D2L, Serotonin 5-HT1F and Serotonin 5-HT4E receptors using cAMP HTRF assay (in triplicate) at the following nanomolar concentrations:
(§5) (6) 8′-OH DHE was tested for agonist and antagonist activity at the human Adrenergic α1D, Serotonin 5-HT3 and Serotonin 5-HT5A receptors using aequorin assay (in triplicate), at the human Dopamine D2L, Serotonin 5-HT1F and Serotonin 5-HT4E receptors using cAMP HTRF assay (in triplicate), and at the human Serotonin 5-HT1B and Serotonin 5-HT1D receptors using GTPγS assay (in triplicate) at the following nanomolar concentrations:
(§6) CHO-K1 or HEK-293 cells coexpressing mitochondrial apoaequorin and recombinant human […], or recombinant human Serotonin 5-HT3 receptor, or recombinant human Serotonin 5-HT5A receptor grown to mid-log phase in culture media without antibiotics were detached with PBS-EDTA, centrifuged and resuspended in assay buffer (DMEMHAM's F12 with HEPES, without phenol red+0.1% BSA protease free) at a concentration of 1×10^6 cells/mL. Cells were incubated at RT for at least 4 hours with coelenterazine h. The reference agonist was tested to evaluate performance of the assay on each day of the test and to determine EC50. For agonist testing, 50 μL of cell suspension was mixed with 50 μL of test compound or reference agonist in a 96-well plate. The resulting emission of light was recorded using Hamamatsu Functional Drug Screening System 6000 (FDSS 6000 luminometer). For antagonist testing, 100 μL of the reference agonist at its EC80 was injected on the mix of cells and test compounds, following an incubation of 15 minutes after the first injection. The resulting emission of light was recorded using the FDSS 6000 luminometer. To standardize the emission of recorded light (determination of the ‘100% signal’) across plates and across different experiments, some of the wells contained 100 μM digitonin or a saturating concentration of ATP (20 μM).
(§7) Agonist activity of the test compounds was expressed as a percentage of the activity of the reference agonist at its EC100 concentration. Antagonist activity of the test compounds was expressed as a percentage of the inhibition of the reference agonist activity at its EC80 concentration. Dose-response data from the test compounds were analyzed with XLfit (IDBS) software using nonlinear regression applied to a sigmoidal dose-response model and the following equation: […]

[2] = target: T2, human Serotonin 5-HT3 receptor (Homo sapiens, UniProt P46098)
T2 construct: expressed in transfected cells; host or cells: CHO-K1 or HEK-293, coexpressing mitochondrial apoaequorin
Experimental: as §1, §2, §3, §4, §5, §6, §7

[3] = target: T3, human Adrenergic α1D receptor (Homo sapiens, UniProt P25100)
T3 construct: expressed in transfected cells; host or cells: CHO-K1 or HEK-293, coexpressing mitochondrial apoaequorin
Experimental: as §1, §2, §3, §4, §5, §6, §7

T3 sequence (P25100 whole entry): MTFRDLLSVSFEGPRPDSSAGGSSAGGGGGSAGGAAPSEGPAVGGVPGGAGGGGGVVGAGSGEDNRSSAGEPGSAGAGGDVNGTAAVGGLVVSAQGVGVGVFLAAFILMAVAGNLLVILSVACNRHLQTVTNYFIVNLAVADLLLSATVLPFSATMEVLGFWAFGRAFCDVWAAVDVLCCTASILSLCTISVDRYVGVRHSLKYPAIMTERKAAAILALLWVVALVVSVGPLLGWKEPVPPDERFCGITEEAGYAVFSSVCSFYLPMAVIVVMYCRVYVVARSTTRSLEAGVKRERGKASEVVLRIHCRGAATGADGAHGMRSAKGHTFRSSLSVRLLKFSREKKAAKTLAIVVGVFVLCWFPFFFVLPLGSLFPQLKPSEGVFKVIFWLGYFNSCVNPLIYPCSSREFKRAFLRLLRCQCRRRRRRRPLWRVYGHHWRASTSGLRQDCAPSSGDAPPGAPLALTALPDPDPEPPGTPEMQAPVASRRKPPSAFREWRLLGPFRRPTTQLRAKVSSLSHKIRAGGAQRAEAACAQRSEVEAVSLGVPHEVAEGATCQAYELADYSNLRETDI
T2 sequence (P46098 24-478): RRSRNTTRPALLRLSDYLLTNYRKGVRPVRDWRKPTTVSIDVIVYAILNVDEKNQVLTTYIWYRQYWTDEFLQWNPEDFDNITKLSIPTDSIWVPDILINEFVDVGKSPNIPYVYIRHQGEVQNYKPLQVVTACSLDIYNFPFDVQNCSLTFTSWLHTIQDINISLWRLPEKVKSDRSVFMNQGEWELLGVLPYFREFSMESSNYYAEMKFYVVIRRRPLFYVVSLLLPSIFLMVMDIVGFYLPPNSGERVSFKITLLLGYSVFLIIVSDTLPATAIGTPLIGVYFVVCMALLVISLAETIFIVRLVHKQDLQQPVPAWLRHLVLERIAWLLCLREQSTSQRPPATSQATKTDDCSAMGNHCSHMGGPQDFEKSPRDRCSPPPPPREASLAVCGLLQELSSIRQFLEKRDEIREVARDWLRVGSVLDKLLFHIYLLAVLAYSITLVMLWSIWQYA
T1 sequence (P47898 whole entry): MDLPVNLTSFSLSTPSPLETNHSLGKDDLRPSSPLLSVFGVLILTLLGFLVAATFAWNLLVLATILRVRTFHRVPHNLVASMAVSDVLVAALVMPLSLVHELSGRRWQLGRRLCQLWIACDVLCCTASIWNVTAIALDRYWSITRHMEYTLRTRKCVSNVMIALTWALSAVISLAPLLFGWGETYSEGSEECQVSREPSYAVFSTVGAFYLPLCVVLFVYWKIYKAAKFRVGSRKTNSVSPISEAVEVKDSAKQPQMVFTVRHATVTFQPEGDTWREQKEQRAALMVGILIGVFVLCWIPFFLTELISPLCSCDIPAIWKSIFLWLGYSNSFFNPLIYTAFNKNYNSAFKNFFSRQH

SMILES	IC50 ([1]; Serotonin 5-HT5A, aequorin, read-out: Functional activity (antagonist))	IC50 ([2]; Serotonin 5-HT3, aequorin, read-out: Functional activity (antagonist))	IC50 ([3]; Adrenergic α1D, aequorin, vs reference agonist at EC80, read-out: Functional activity (antagonist))	IC50 [1]	IC50 [2]	IC50 [3]
CN1C[C@H](C(=O)N[C@]2(C)O[C@@]3(O)[C@@H]4CCC(O)N4C(=O)[C@H](Cc4ccccc4)N3C2=O)C[C@@H]2c3cccc4[nH]cc(c34)C[C@H]21 (stereo partly drawn) [8′-OH DHE, 8′-Hydroxy-Dihydroergotamine]	0.0733 µM	> 10 µM	0.00061 µM			
CN1C[C@H](C(=O)N[C@]2(C)O[C@@]3(O)[C@@H]4CCCN4C(=O)[C@H](Cc4ccccc4)N3C2=O)C[C@@H]2c3cccc4[nH]cc(c34)C[C@H]21 [DHE, Dihydroergotamine]				0.0488 µM	3.85 µM	0.00132 µM
